Data as given in PubChem BioAssay (NCI).
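Briefly, cells in 96-well plates were exposed to five compound concentrations for 48 h, and endpoints were estimated by linear interpolation. GI50 is the concentration that inhibits growth by half. At the TGI there is no net growth.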

How the values were obtained:
Test in all cases: NCI anticancer screen, dose series, 48 h
SF-295 CNS = tested on: SF-295 CNS
TK-10 renal = tested on: TK-10 renal
SF-268 CNS = tested on: SF-268 CNS
SK-MEL-5 melanoma = tested on: SK-MEL-5 melanoma
COLO 205 colon = tested on: COLO 205 colon
OVCAR-5 ovarian = tested on: OVCAR-5 ovarian
MDA-MB-435 = tested on: MDA-MB-435
PC-3 prostate = tested on: PC-3 prostate
BT-549 breast = tested on: BT-549 breast
K-562 leukemia = tested on: K-562 leukemia
HCT-116 colon = tested on: HCT-116 colon
HCT-15 colon = tested on: HCT-15 colon
MCF7 breast = tested on: MCF7 breast
A549 NSCLC = tested on: A549 NSCLC
MALME-3M melanoma = tested on: MALME-3M melanoma
SN12C renal = tested on: SN12C renal
786-0 renal = tested on: 786-0 renal
UACC-257 melanoma = tested on: UACC-257 melanoma
CCRF-CEM leukemia = tested on: CCRF-CEM leukemia
NCI/ADR-RES ovarian = tested on: NCI/ADR-RES ovarian
A498 renal = tested on: A498 renal
OVCAR-4 ovarian = tested on: OVCAR-4 ovarian
NCI-H23 lung = tested on: NCI-H23 lung
SK-MEL-2 melanoma = tested on: SK-MEL-2 melanoma
U251 CNS = tested on: U251 CNS
EKVX NSCLC = tested on: EKVX NSCLC
MOLT-4 leukemia = tested on: MOLT-4 leukemia
HCC-2998 colon = tested on: HCC-2998 colon
HOP-92 NSCLC = tested on: HOP-92 NSCLC
RXF 393 renal = tested on: RXF 393 renal
SNB-19 CNS = tested on: SNB-19 CNS
IGROV1 ovarian = tested on: IGROV1 ovarian
KM12 colon = tested on: KM12 colon
UO-31 renal = tested on: UO-31 renal
SNB-75 CNS = tested on: SNB-75 CNS
T-47D breast = tested on: T-47D breast
M14 melanoma = tested on: M14 melanoma
LOX IMVI melanoma = tested on: LOX IMVI melanoma
DU-145 prostate = tested on: DU-145 prostate
RPMI-8226 leukemia = tested on: RPMI-8226 leukemia
SK-MEL-28 melanoma = tested on: SK-MEL-28 melanoma
NCI-H226 lung = tested on: NCI-H226 lung
SK-OV-3 ovarian = tested on: SK-OV-3 ovarian
NCI-H522 lung = tested on: NCI-H522 lung
CAKI-1 renal = tested on: CAKI-1 renal
SF-539 CNS = tested on: SF-539 CNS
HT29 colon = tested on: HT29 colon
HL-60(TB) leukemia = tested on: HL-60(TB) leukemia
MDA-MB-231 breast = tested on: MDA-MB-231 breast
OVCAR-3 ovarian = tested on: OVCAR-3 ovarian
NCI-H460 lung = tested on: NCI-H460 lung
UACC-62 melanoma = tested on: UACC-62 melanoma
HOP-62 NSCLC = tested on: HOP-62 NSCLC
SW-620 colon = tested on: SW-620 colon
ACHN renal = tested on: ACHN renal
SR leukemia = tested on: SR leukemia
HS 578T breast = tested on: HS 578T breast
OVCAR-8 ovarian = tested on: OVCAR-8 ovarian

## N[C@@H]1C(=O)N2C(C(=O)OC(c3ccccc3)c3ccccc3)=C(CCl)CS[C@H]12
SF-295 CNS
  GI50: > 94.3 µM
  TGI: > 100 µM
TK-10 renal
  GI50: 50.1 µM
  TGI: > 100 µM
SF-268 CNS
  GI50: 31.7 µM
  TGI: 98.7 µM
SK-MEL-5 melanoma
  GI50: 40.8 µM
  TGI: > 100 µM
COLO 205 colon
  GI50: 40.3 µM
  TGI: > 100 µM
OVCAR-5 ovarian
  GI50: 44.5 µM
  TGI: > 100 µM
MDA-MB-435
  GI50: 35.1 µM
  TGI: > 100 µM
PC-3 prostate
  GI50: 32.4 µM
  TGI: > 100 µM
BT-549 breast
  GI50: 25.4 µM
  TGI: 62.8 µM
K-562 leukemia
  GI50: 15.4 µM
  TGI: > 89.2 µM
HCT-116 colon
  GI50: 27.1 µM
  TGI: > 76.6 µM
HCT-15 colon
  GI50: 37.9 µM
  TGI: > 100 µM
MCF7 breast
  GI50: 33.6 µM
  TGI: > 100 µM
A549 NSCLC
  GI50: > 67.5 µM
  TGI: > 100 µM
MALME-3M melanoma
  GI50: > 74.5 µM
  TGI: > 100 µM
SN12C renal
  GI50: 41 µM
  TGI: > 100 µM
786-0 renal
  GI50: 39.3 µM
  TGI: 98.9 µM
UACC-257 melanoma
  GI50: > 100 µM
  TGI: > 100 µM
CCRF-CEM leukemia
  TGI: > 61.6 µM
NCI/ADR-RES ovarian
  GI50: 38.2 µM
  TGI: > 100 µM
A498 renal
  GI50: > 100 µM
  TGI: > 100 µM
OVCAR-4 ovarian
  GI50: 44.8 µM
  TGI: > 100 µM
NCI-H23 lung
  GI50: 95.6 µM
  TGI: > 100 µM
SK-MEL-2 melanoma
  GI50: 54.2 µM
  TGI: > 100 µM
U251 CNS
  GI50: 29.2 µM
  TGI: > 78.9 µM
EKVX NSCLC
  GI50: 60.1 µM
  TGI: > 100 µM
MOLT-4 leukemia
  GI50: 11.3 µM
  TGI: > 71.2 µM
HCC-2998 colon
  GI50: 43 µM
  TGI: > 100 µM
HOP-92 NSCLC
  GI50: 38.3 µM
  TGI: > 71.4 µM
RXF 393 renal
  GI50: 26.4 µM
  TGI: 63.7 µM
SNB-19 CNS
  GI50: 66.7 µM
  TGI: > 100 µM
IGROV1 ovarian
  GI50: 47.4 µM
  TGI: > 100 µM
KM12 colon
  GI50: 38.1 µM
  TGI: > 100 µM
UO-31 renal
  GI50: 47.3 µM
  TGI: > 100 µM
SNB-75 CNS
  GI50: 47.7 µM
  TGI: > 100 µM
T-47D breast
  GI50: 46 µM
  TGI: > 100 µM
M14 melanoma
  GI50: 34.8 µM
  TGI: > 96.2 µM
LOX IMVI melanoma
  GI50: 24.9 µM
  TGI: 65 µM
DU-145 prostate
  GI50: 15 µM
  TGI: > 100 µM
RPMI-8226 leukemia
  GI50: 16.8 µM
  TGI: 50.8 µM
SK-MEL-28 melanoma
  GI50: 22.4 µM
  TGI: 53.8 µM
NCI-H226 lung
  GI50: 55.2 µM
  TGI: > 100 µM
SK-OV-3 ovarian
  GI50: > 100 µM
  TGI: > 100 µM
NCI-H522 lung
  GI50: 31 µM
  TGI: > 84.7 µM
CAKI-1 renal
  GI50: > 100 µM
  TGI: > 100 µM
SF-539 CNS
  GI50: 23.5 µM
  TGI: 50.2 µM
HT29 colon
  GI50: 30.2 µM
  TGI: > 94 µM
HL-60(TB) leukemia
  GI50: 2460 nM
  TGI: > 38.3 µM
MDA-MB-231 breast
  GI50: 25.2 µM
  TGI: 63.1 µM
OVCAR-3 ovarian
  GI50: 26 µM
  TGI: 75.6 µM
NCI-H460 lung
  GI50: 34 µM
  TGI: > 100 µM
UACC-62 melanoma
  GI50: 42.7 µM
  TGI: > 91.2 µM
HOP-62 NSCLC
  GI50: 63.4 µM
  TGI: > 100 µM
SW-620 colon
  GI50: 36.6 µM
  TGI: > 100 µM
ACHN renal
  GI50: 40.2 µM
  TGI: > 100 µM
SR leukemia
  GI50: 2120 nM
  TGI: 33.8 µM
HS 578T breast
  GI50: 46.8 µM
  TGI: > 100 µM
OVCAR-8 ovarian
  GI50: 27.3 µM
  TGI: > 77 µM
